Series [1] concerns PSEUDOMONAS AERUGINOSA K799/WT. Put plainly: In vitro MIC, agar dilution (BHIA). Format: cell-based.
For series [2], the system named is KLEBSIELLA PNEUMONIAE ATCC 8045. The series can be described thus: In vitro MIC, agar dilution (BHIA). Format: cell-based.
The next series concerns PSEUDOMONAS CEPACIA 296I. The series can be described thus: In vitro MIC, agar dilution (BHIA). Format: cell-based.
For the next series, the system named is E. Coli Juhl. The series can be described thus: Acute mouse protection test. The following applies: mice infected i.p. with E. Coli JUHL, observed 7 days; for SC (ED50): SC dosing at 1 and 5 hours post-infection; for Oral (ED50): oral dosing at 1 and 5 hours post-infection. Format: in vivo.
A further series relates to ESCHERICHIA COLI JUHL. The series can be described thus: In vitro MIC, agar dilution (BHIA). Format: cell-based. (Agar dilution tests growth on a series of plates holding different concentrations.)
Series [3] concerns PSEUDOMONAS AERUGINOSA K799/61. The series can be described thus: In vitro MIC, agar dilution (BHIA). Format: cell-based.
In series [4] the test system is MICROCOCCUS LUTEUS ATCC 4698. Put plainly: In vitro MIC, agar dilution (BHIA). Format: cell-based.
Another series has as its system ACINETOBACTER SP CMX 669. Put plainly: In vitro MIC, agar dilution (BHIA). Format: cell-based.
For a further series, the system named is ESCHERICHIA COLI H560. The series can be described thus: In vitro MIC, agar dilution (BHIA). Format: cell-based. From the text: (§1) The MIC results are in ug/ml.
Another series relates to ESCHERICHIA COLI SS. Put plainly: In vitro MIC, agar dilution (BHIA). Format: cell-based.
From the text: as §1

In series [5] the test system is STREPTOCOCCUS PYOGENES EES61. The series can be described thus: In vitro MIC, agar dilution (BHIA). To be noted: STREPTOCOCCUS PYOGENES EES61. Format: cell-based.
The test system of series [6] is STREPTOCOCCUS PYOGENES 2548 INDUC. Put plainly: In vitro MIC, agar dilution (BHIA). Format: cell-based.
Series [7] in a line: Conversion of prodrug to parent drug in whole blood at 37° C. Format: in vitro ADME, Dog.
The subject of series [8] is PROVIDENCIA STUARTII CMX 640. The series can be described thus: In vitro MIC, agar dilution (BHIA). Format: cell-based.
The next series has as its system P. Aeruginosa A5007. Put plainly: Acute mouse protection test. To be noted: mice infected i.p. with P. Aeruginosa A5007, observed 7 days; for SC (ED50): SC dosing at 1 and 5 hours post-infection; for Oral (ED50): oral dosing at 1 and 5 hours post-infection. Format: in vivo.
The test system of series [9] is ENTEROBACTER AEROGENES ATCC 13048. The series can be described thus: In vitro MIC, agar dilution (BHIA). Format: cell-based.
The subject of series [10] is ENTEROCOCCUS FAECIUM ATCC 8043. Put plainly: In vitro MIC, agar dilution (BHIA). Format: cell-based.
The test system of series [11] is PSEUDOMONAS AERUGINOSA A5007. The series can be described thus: In vitro MIC, agar dilution (BHIA). Format: cell-based.
Series [12] concerns MICROCOCCUS LUTEUS ATCC 9341. The series can be described thus: In vitro MIC, agar dilution (BHIA). Format: cell-based.
Series [13] has as its system PSEUDOMONAS AERUGINOSA BMH10. Put plainly: In vitro MIC, agar dilution (BHIA). Format: cell-based.
A short description of series [14]: Conversion of prodrug to parent drug in whole blood at 37° C. Format: in vitro ADME, Human. Here is the method: (§2) An aqueous solution of prodrug (Z) is spiked into fresh whole blood containing sodium heparin as an anticoagulant. The sample is mixed gently by inversion and placed in a 37° waterbath. At selected time intervals an 0.5 ml aliquot of blood is removed and placed in a chilled 1.5 ml centrifuge tube (ice temperature). Samples are centrifuges at 13,000 rpm for two minutes to separate plasma. An 0.2 ml aliquot of the plasma sample is combined with 0.2 ml internal standard (7-(4-amino-2-methyl-1-pyrrolidinyl)-1-(2,4-difluorophenyl)-6-fluoro-1,4-d ihydro-4-oxo-1,8-naphthyridine-3-carboxylic acid in 0.2M sodium phosphate pH 7.2 buffer) and 6 mls CH2 Cl2 :EtoH (9:1 by volume). Samples are capped and shaken gently for 10 minutes. Samples are centrifuges at 2500 rpm for 10 minutes (4° C.). The aqueous layer is aspirated to waste and the organic layer is transferred to a conical centrifuge tube and evaporated to dryness with a stream of dry air and low heat ([…]). Samples are reconstituted with 0.2 ml mobile phase followed by vortexing. Samples are centrifuges at 2500 rpm for 10 minutes to separate precipitate. The supernatant is transferred to a WISP vial with plastic insert for HPLC analysis.

Assay in series [15]: as above
Format: in vitro ADME, Rat. As to the method: as §2

The next series has as its system Stap. Aureus NCTC 10649. Put plainly: Acute mouse protection test. Format: in vivo. To be noted: mice infected i.p. with Stap. Aureus NCTC 10649, observed 7 days; for SC (ED50): SC dosing at 1 and 5 hours post-infection; for Oral (ED50): oral dosing at 1 and 5 hours post-infection.
Series [16] concerns STREPTOCOCCUS AGALACTIAE CMX 508. The series can be described thus: In vitro MIC, agar dilution (BHIA). The following applies: STREPTOCOCCUS AGALACTIAE CMX 508. Format: cell-based.
The test system of series [17] is STREPTOCOCCUS BOVIS A5169. The series can be described thus: In vitro MIC, agar dilution (BHIA). Format: cell-based. The following applies: STREPTOCOCCUS BOVIS A5169.
For a further series, the system named is ESCHERICHIA COLI KNK 437. The series can be described thus: In vitro MIC, agar dilution (BHIA). Format: cell-based.
A further series has as its system ESCHERICHIA COLI DC-2. The series can be described thus: In vitro MIC, agar dilution (BHIA). Format: cell-based.
From the text: as §1

The subject of series [18] is STREPTOCOCCUS PYOGENES 930 CONST. The series can be described thus: In vitro MIC, agar dilution (BHIA). Format: cell-based.
Series [19] can be described thus: Plasma level in dog after oral dose. To be noted: 10 mg equivalent/kg oral dose, HPLC. From the text: The plasma samples were collected and determined by the HPLC analysis.
A short description of series [20]: Solubility in water and at pH 7.4. To be noted: for Water Solubility: the sign > refers to an approximate value and the solubility may be within 10% higher.

Converted amounts (≈) assume the structure as drawn. Read-outs that look alike come from different tables or passages of the source.

Regarding `NC(Cc1ccccc1)C(=O)NC1CCN(c2nc3c(cc2F)c(=O)c(C(=O)O)cn3-c2ccc(F)cc2F)C1` (centres unmarked) [Example 5], the minimum inhibitory concentration (MIC) (in general, the least concentration at which growth counts as inhibited) in [1] was 25 µg/mL (≈ 45.3 µM); in series [2], 1.56 µg/mL (≈ 2.83 µM); with PSEUDOMONAS CEPACIA 296I, over 100 µg/mL; in the series on ESCHERICHIA COLI JUHL, 3.1 µg/mL (≈ 5.62 µM); in [3] it was 1.56 µg/mL (≈ 2.83 µM); in [4] it was 12.5 µg/mL (≈ 22.7 µM). Also, the minimal inhibitory concentration (MIC) was 12.5 µg/mL (≈ 22.7 µM) with ACINETOBACTER SP CMX 669; 3.1 µg/mL (≈ 5.62 µM) with ESCHERICHIA COLI H560; “.1 µg/mL” against ESCHERICHIA COLI SS; 3.1 µg/mL (≈ 5.62 µM) in series [5]; “.78 µg/mL” in series [6]; over 100 µg/mL in series [8]. For the same compound, the minimal inhibitory concentration (MIC) in series [9] was 12.5 µg/mL (≈ 22.7 µM); in [10], 3.1 µg/mL (≈ 5.62 µM); in [11], 50 µg/mL (≈ 90.7 µM); in series [12] it was 25 µg/mL (≈ 45.3 µM); in series [13], 25 µg/mL (≈ 45.3 µM); in series [16], 3.1 µg/mL (≈ 5.62 µM). Moreover, the “SC (ED50)” value with E. Coli Juhl worked out at 0.7 mg/kg/day; with P. Aeruginosa A5007, 7.5 mg/kg/day; in the series with Stap. Aureus NCTC 10649, 1.0 mg/kg/day. Also, the “Oral (ED50)” value with E. Coli Juhl is given as 3.5 mg/kg/day; in the series with P. Aeruginosa A5007 it was 18.6 mg/kg/day; in the series with Stap. Aureus NCTC 10649 it was 3.6 mg/kg/day. Moreover, the “Half Life Dog” value in [7] turned out to be 8.3 m. Besides, the “Half Life Human” value in [14] is reported as 10.7 m. In series [15], the “Half Life Rat” value is listed as 4.5 m.
Consider `CC(N)C(=O)NC(C)C(=O)NC1CCN(c2nc3c(cc2F)c(=O)c(C(=O)O)cn3-c2ccc(F)cc2F)C1` (centres unmarked) [Example 15], for which the “Solubility pH 7.4” value is recorded as 1.07 mg/ml. This compound had a minimal inhibitory concentration (MIC) in series [1] of 50 µg/mL (≈ 91.5 µM). In series [2], this compound came in with a minimal inhibitory concentration (MIC) of 12.5 µg/mL (≈ 22.9 µM). The MIC in the series with PSEUDOMONAS CEPACIA 296I came out at 50 µg/mL (≈ 91.5 µM). Besides, in the series on E. Coli Juhl, the “SC (ED50)” value is 0.5 mg/kg/day and the “Oral (ED50)” value was found to be 2.0 mg/kg/day. In addition, the minimal inhibitory concentration (MIC) in the series with ESCHERICHIA COLI JUHL came out at 12.5 µg/mL (≈ 22.9 µM). In [3], this compound registered a minimal inhibitory concentration (MIC) of 3.1 µg/mL (≈ 5.67 µM). The compound further yielded a minimum inhibitory concentration (MIC) in series [4] of 100 µg/mL (≈ 183 µM). Besides, in [17], the MIC was 50 µg/mL (≈ 91.5 µM). The compound further registered an MIC in the series on ACINETOBACTER SP CMX 669 of 12.5 µg/mL (≈ 22.9 µM). This compound registered a minimal inhibitory concentration (MIC) in the series with ESCHERICHIA COLI KNK 437 of 50 µg/mL (≈ 91.5 µM). In the series with ESCHERICHIA COLI DC-2, this compound showed an MIC of 100 µg/mL (≈ 183 µM). The compound further displayed a minimal inhibitory concentration (MIC) in the series with ESCHERICHIA COLI H560 of 6.2 µg/mL (≈ 11.3 µM). The minimal inhibitory concentration (MIC) entry against ESCHERICHIA COLI SS is “.39 µg/mL”. In [5], the MIC amounted to 12.5 µg/mL (≈ 22.9 µM). This compound also displayed an MIC in series [6] of 12.5 µg/mL (≈ 22.9 µM). Further, the “Half Life Dog” value in series [7] is on record as 2.4 m. This compound had a minimal inhibitory concentration (MIC) in series [8] of 100 µg/mL (≈ 183 µM). Moreover, in the series with P. Aeruginosa A5007, the “SC (ED50)” value was 3.1 mg/kg/day and the “Oral (ED50)” value stood at 9.1 mg/kg/day. Also, in series [9], the minimum inhibitory concentration (MIC) was found to be 25 µg/mL (≈ 45.7 µM). Further, the MIC in series [10] is 50 µg/mL (≈ 91.5 µM). The MIC in series [18] is 12.5 µg/mL (≈ 22.9 µM). Further, in series [11], the MIC was determined as 100 µg/mL (≈ 183 µM). In addition, the minimal inhibitory concentration (MIC) in series [12] is over 100 µg/mL. This compound also registered an MIC in series [13] of 100 µg/mL (≈ 183 µM). In addition, the “Half Life Human” value in [14] is 3.0 m. Besides, in series [15], the “Half Life Rat” value was 84.8 s. In the series with Stap. Aureus NCTC 10649, the “SC (ED50)” value worked out at 0.8 mg/kg/day and the “Oral (ED50)” value was 1.3 mg/kg/day. Moreover, the MIC in series [16] worked out at 12.5 µg/mL (≈ 22.9 µM).
For the compound `CCC[C@H](NC(=O)CN)C(=O)NC1CCN(c2nc3c(cc2F)c(=O)c(C(=O)O)cn3-c2ccc(F)cc2F)C1` (some centres unmarked) [Example 52], in series [19], the “AUC (0-32h)” value is reported as 13.9. In series [20], the “Solubility pH 7.4” value turned out to be 0.08 mg/ml and the “Water Solubility” value was 6.89 mg/mL.
Turning to `CCC[C@H](NC(=O)[C@H](C)N)C(=O)NC1CCN(c2nc3c(cc2F)c(=O)c(C(=O)O)cn3-c2ccc(F)cc2F)C1` (some centres unmarked) [Example 55b, 7-(3-Ala-Nval-amino-1-pyrrolidinyl)-6-fluoro-1-(2,4-difluorophenyl)-1,4-di hydro-4-oxo-1,8-naphthyridine-3-carboxylic acid], the “AUC (0-32h)” value in series [19] was determined as 15.4. Also, in series [7] (conversion to parent drug in dog whole blood at 37° C., seconds), the “Half Life Dog” value is given as 118.0 s. For the same compound, in series [20], the “Solubility pH 7.4” value was 1.03 mg/ml and the “Water Solubility” value was found to be 26 mg/mL. Moreover, the “Half Life Human” value in [14] (conversion to parent drug in human whole blood at 37° C., seconds) is listed as 88.0 s. In addition, the “Half Life Rat” value in series [15] (conversion to parent drug in rat whole blood at 37° C., seconds) stood at 33.2 s.

Source of the values: patent US5057520A, “7-(peptidylpyrolidinyl)naphthyridine antibacterial compounds” (Abbott Laboratories, priority 1989, dated 1991).
